The text below walks through data of US20260007688A1, “SYNTHETIC ANALOGS OF CANNABINOL (CBN) FOR THE TREATMENT OF AGERELATED NEUROLOGICAL DISORDERS” (priority 2023, published 2026).

As usually defined, the pEC50 is the negative decadic logarithm of the EC50, by convention in mol/L.

The structures appear in SMILES notation. pEC50: −log10 of the molar value. Like-named read-outs stand apart in the source and are kept apart here.

Test [1] concerns HT22 cells. It counts as cell-based, mouse.
Description: A series of fragment chemicals with different variants of the substructures were assembled and screened in a cell-based phenotypic screening assays in the context of oxytosis/ferroptosis (FIG. 1). Specifically, for the left unit (LU), monoterpenoids with different functional groups and/or double-bond substitutions as well as ring arrangements were screened. For the central unit (CU), benzene rings with different hydroxyl group substitutions were screened. For the right unit (RU), different lengths, with or without branches, of the aliphatic hydrocarbon chains were examined.
CBN, CBD and THC were used as reference compounds.
(§1) Briefly, HT22 cells were seeded at 3,000 cells/well in 96-well tissue culture plates in DMEM plus 10% FBS and 1% antibiotics. After 24 hours of plating, the cells were pretreated with different concentrations of the test compounds or a vehicle control for 1 hour followed by coincubation with 5 mM glutamate to initiate the cell death cascade. After 16 hours of treatment, cell viability was measured by the 3-(4,5-dimethylthiazol-2-yl)-2,5-diphenyltetrazolium bromide (MTT) assay. Optical absorbance was measured at 570 nm on a SpectraMax M5 microplate reader. Samples were analyzed in eight to sixteen wells per independent experiment (n=8-16).
as §1, with “The assay procedure described in Fischer et al. was used. Briefly,” for “Briefly,”, “of” for “of the”, “50-100 nM RSL3 or 500 nM erastin” for “5 mM glutamate”, “induce” for “initiate”, “MTT” for “3-(4,5-dimethylthiazol-2-yl)-2,5-diphenyltetrazolium bromide (MTT)”

In test [2] the test system is HT22 cells. Put plainly: Ferroptosis assay, erastin-induced cell death, MTT viability. Format: cell-based. Particulars: Mus musculus, HT-22, 500 nM erastin, 16 hours. How it is done:
(§2) HT22 mouse hippocampal nerve cells were cultured in high-glucose Dulbecco's modified Eagle's medium (DMEM) (Invitrogen, Cat #11995065, Carlsbad, CA) supplemented with 10% fetal bovine serum (FBS) (Invitrogen, Carlsbad, CA) and 1% antibiotics including penicillin and streptomycin (Invitrogen Cat #10378016, Carlsbad, CA). Cell cultures were incubated at 37° C. in a fully humidified atmosphere containing 10% CO2.
as §1, with “The assay procedure described in Fischer et al. was used. Briefly,” for “Briefly,”, “of” for “of the”, “50-100 nM RSL3 or 500 nM erastin” for “5 mM glutamate”, “induce” for “initiate”, “MTT” for “3-(4,5-dimethylthiazol-2-yl)-2,5-diphenyltetrazolium bromide (MTT)”, “(n=8-16). Results are presented as the percentage of the controls with vehicle alone.” for “(n=8-16).”

Test [3] concerns HT22 cells. Briefly: Ferroptosis assay, RSL3-induced cell death, MTT viability. It counts as cell-based. Particulars: Mus musculus, HT-22, 50 nM RSL3, 16 hours. How it is done:
as §2
as §1, with “The assay procedure described in Fischer et al. was used. Briefly,” for “Briefly,”, “of” for “of the”, “50-100 nM RSL3 or 500 nM erastin” for “5 mM glutamate”, “induce” for “initiate”, “MTT” for “3-(4,5-dimethylthiazol-2-yl)-2,5-diphenyltetrazolium bromide (MTT)”, “(n=8-16). Results are presented as the percentage of the controls with vehicle alone.” for “(n=8-16).”

Another test relates to MC65 cells. Briefly: Intracellular amyloid toxicity assay. Particulars: Homo sapiens, 72 h, APP-C99 induced, day 3, MTT, read-out: Aβ toxicity EC50. It counts as cell-based. The source says: Accumulation of intracellular amyloid beta peptide (Aβ) is considered by many as being a primary toxic event in AD. The human nerve cell line MC65 conditionally expresses the C99 fragment of the amyloid precursor protein (APP) leading to the accumulation of intracellular AB. The MC65 cells are routinely grown in the presence of tetracycline and, following its removal, the expression of C99 is induced and the cells die within three days because of the accumulation of intracellular, toxic protein aggregates.
For the intracellular amyloid toxicity assay the procedure described in Huang et al., “Intracellular amyloid toxicity induces oxytosis/ferroptosis regulated cell death” Cell Death Dis. 11 (10) (2020) 828 was used. Briefly, MC65 cells were regularly grown in high glucose DMEM supplemented with 10% FCS and 2 μg/ml tetracycline. For the assay, cells were dissociated and plated at 1×10^5 cells per well in 24 well tissue culture plates. After overnight cultivation in growth medium, the cells were washed three times with phosphate buffered saline containing calcium and magnesium and then switched to Opti-minimal essential media (Opti-MEM, Invitrogen) in the presence (no induction) or absence (APP-C99 induced) of 2 μg/ml tetracycline in the presence or absence different concentrations of the indicated compounds. At day 3, the control cells in the absence of tetracycline were dead, and cell viability was determined by the MTT assay. Optical absorbance was measured at 570 nm on a SpectraMax M5 microplate reader. Samples were analyzed in three wells per independent experiment (n=3). Results are presented as EC50.

The subject of the next test is Drosophila melanogaster. Put plainly: Drosophila mild traumatic brain injury (mTBI) model. Format: in vivo. Particulars: 3.0 μM in food, 3 weeks after mTBI (10×); vehicle 70.2%.
Test [4] relates to HT22 cells. Put plainly: Oxytosis assay, glutamate-induced cell death, MTT viability. It counts as cell-based. Particulars: Mus musculus, HT-22, 5 mM glutamate, 16 hours. How it is done:
as §2
The assay procedure described in Fischer et al., “Old age-associated phenotypic screening for Alzheimer's disease drug candidates identifies sterubin as a potent neuroprotective compound from Yerba santa” Redox Biol. 21 (2019) 101089 was used. Briefly, HT22 cells were seeded at 3,000 cells/well in 96-well tissue culture plates in DMEM plus 10% FBS and 1% antibiotics. After 24 hours of plating, the cells were pretreated with different concentrations of the test compounds or a vehicle control for 1 hour followed by coincubation with 5 mM glutamate to initiate the cell death cascade. After 16 hours of treatment, cell viability was measured by the 3-(4,5-dimethylthiazol-2-yl)-2,5-diphenyltetrazolium bromide (MTT) assay. Optical absorbance was measured at 570 nm on a SpectraMax M5 microplate reader. Samples were analyzed in eight to sixteen wells per independent experiment (n=8-16). Results are presented as the percentage of the controls with vehicle alone.

Test [5] has as its system HT22 cells. Briefly: Mitochondrial reactive oxygen species measurement (MitoSOX Red). It counts as cell-based, mouse. Particulars: 5 μM compound + 50 nM RSL3. How it is done:
The assay procedure described in Liang et al. was used. Briefly, HT22 cells were seeded onto 96-well black walled plates at a density of 3,000 cells/well in DMEM supplemented with 10% FBS and 1% antibiotics. After the desired treatments, the mitochondrial superoxide ROS were detected with MitoSOX Red reagent (Ex/Em=510/580 nm). Experiments were performed according to the manufacturer's instructions. Fluorescence was measured on a SpectraMax M5 microplate reader. Data were normalized for total protein/well. Each condition was analyzed in eight wells per independent experiment (n=8). Results are presented as the percentage of the controls with vehicle alone. Results were verified by live-cell imaging under a fluorescence microscope. FIG. 14 provides the results.

The test system of test [6] is HT22 cells. Briefly: Seahorse XF mitochondrial stress test (OCR). It counts as cell-based, mouse. Particulars: 16 hours, compared with the control cells.

For `Oc1ccccc1` [phenol], in the test with HT22 cells [1], the “neuroprotective activity against oxytosis/ferroptosis” value is recorded as “limited neuroprotective activity”.
In the case of `Oc1cccc(O)c1O` [pyrogallol], in the test with HT22 cells [1] (1-50 μM, glutamate and RSL3), the “neuroprotective activity against oxytosis/ferroptosis” value is recorded as “limited neuroprotective activity”.
Regarding `CCCCCCCCCCCCCCCc1cc(O)cc(O)c1` [5-pentadecylresorcinol], the “neuroprotective activity against oxytosis/ferroptosis” value in the test with HT22 cells [1] (1-50 μM, glutamate and RSL3) was “no further improvement in neuroprotective activity”.
Take `CCCCCc1cc(O)c2c(c1)OC(C)(C)C=C2` [CP3, 2,2-dimethyl-7-pentyl-2H-chromen-5-ol]: the pEC50 with HT22 cells [2] is 5.42; in the test on HT22 cells [3] it was 6.07; in the test with MC65 cells, 6.84; in the test on HT22 cells [4] it was 5.59. Besides, the “3-week mortality index (MI), percentage of dead flies” value with Drosophila melanogaster came out at 67.3%.
As for `Oc1cccc(O)c1` [resorcinol], the “neuroprotective activity against oxytosis/ferroptosis” value with HT22 cells [1] (1-50 μM, glutamate and RSL3) was “limited neuroprotective activity”.
Consider `CCCCCCC(C)(C)c1cc(O)cc(O)c1` [5-(1,1-dimethylheptyl) resorcinol], for which the neuroprotection in the test with HT22 cells [1] (1 μM) is recorded as more than 50%.
Regarding `Oc1ccccc1O` [catechol], the “neuroprotective activity against oxytosis/ferroptosis” value in the test with HT22 cells [1] (10-50 μM, glutamate and RSL3) was “weak neuroprotective activities”.
For `CCCCCCC(C)(C)c1cc(O)c2c(c1)OC(C)(C)C=C2` [CP1, 2,2-dimethyl-7-(2-methyloctan-2-yl)-2H-chromen-5-ol], the pEC50 in the test on HT22 cells [2] was 5.56; in the test with HT22 cells [3], 6.17; with MC65 cells, 7.51; in the test with HT22 cells [4] it was 5.72. The “RSL3-induced mtROS production” value with HT22 cells [5] is on record as “strongest anti-mtROS effect”. Besides, the “maximal and spare mitochondrial respiration (OCR)” value with HT22 cells [6] is on record as “strongest effect on the suppression”. Further, the “3-week mortality index (MI), percentage of dead flies” value in the test with Drosophila melanogaster stood at 49.5%.
As to `CCCCCc1cc(O)c2c(c1)OC(C)C=C2` (centres unmarked) [CP4, 2-methyl-7-pentyl-2H-chromen-5-ol], the negative-log EC50 (pEC50) was 5.09 in the test on HT22 cells [2], 6.08 in the test with HT22 cells [3], 5.80 with MC65 cells and 5.18 with HT22 cells [4]. Further, in the test on Drosophila melanogaster, the “3-week mortality index (MI), percentage of dead flies” value was 61.9%.
With `Oc1ccc(O)cc1` [hydroquinone], the “neuroprotective activity against oxytosis/ferroptosis” value in the test with HT22 cells [1] is listed as “weak neuroprotective activities”.
On to `CCCCCCc1ccc(O)cc1O` [4-hexylresorcinol, 4-hexylbenzene-1,3-diol], for which the “neuroprotective activity against oxytosis/ferroptosis” value in the test with HT22 cells [1] (10-50 μM, glutamate and RSL3) was “good to excellent neuroprotective activity”.
For the compound `Oc1ccc(O)c(O)c1` [hydroxyquinol], the “neuroprotective activity against oxytosis/ferroptosis” value in the test with HT22 cells [1] (1-50 μM, glutamate and RSL3) is recorded as “limited neuroprotective activity”.
As for `CCCCCCC(C)(C)c1cc(O)c2c(c1)OC(C)C=C2` (centres unmarked) [CP2, 2-methyl-7-(2-methyloctan-2-yl)-2H-chromen-5-ol], the negative-log EC50 (pEC50) in the test on HT22 cells [2] was 5.47; with HT22 cells [3], 6.04; in the test with MC65 cells, 7.01; with HT22 cells [4], 5.54. The “3-week mortality index (MI), percentage of dead flies” value in the test with Drosophila melanogaster turned out to be 66.7%.
In the case of `CC(C)(C)c1cc(O)ccc1O` [2-tert-butylbenzene-1,4-diol], the “neuroprotective activity against oxytosis/ferroptosis” value in the test on HT22 cells [1] (10-50 μM, glutamate and RSL3) is “good to excellent neuroprotective activity”.
As to `Oc1cc(O)cc(O)c1` [phloroglucinol], the “neuroprotective activity against oxytosis/ferroptosis” value in the test on HT22 cells [1] (1-50 μM, glutamate and RSL3) is “limited neuroprotective activity”.
With `CCCCc1ccc(O)c(O)c1` [4-butylbenzene-1,2-diol], the “neuroprotective activity against oxytosis/ferroptosis” value with HT22 cells [1] (10-50 μM, glutamate and RSL3) is given as “good to excellent neuroprotective activity”.
On the same count and under the same terms, under `CCCCCc1cc(O)cc(O)c1` [olivetol, 5-pentyl-1,3-benzenediol] stands “good to excellent neuroprotective activity”.
